Reference: patent US20230149398A1, “TOPICAL PHARMACEUTICAL COMPOSITIONS COMPRISING IMIDAZO[1,2-B]PYRIDAZINE COMPOUNDS” (BenevolentAI Bio Limited, priority 2020, published 2023)

Test system: RHE cultures (ZenSkin)
Assay: RHE irritancy test (MTT viability of RHE cultures)
Type: cell-based
Settings: 30 μL applied for 1 hour, MTT after 42 hours, relative to negative control (water), n=3
Experimental: RHE cultures (ZenSkin®) (surface area=0.33 cm^2) were equilibrated overnight in a humidified incubator at 37° C. and 5% CO2. The next day RHE were removed from the incubator and inspected for residual liquid on the apical surface. Excess moisture was removed with sterile cotton swab and 30 μL of a topical pharmaceutical composition was applied to triplicate cultures (n=3). Sterile water served as a negative control and 1% Triton X-100 served as positive control. Once treated, RHE cultures were returned to the incubator for 1 hour and then gently washed to remove test substance. The washed inserts were then transferred to new 12 well plates prefilled with fresh 0.5 mL media. […]
After 42-hour incubation, the tissue cultures were transferred to a new plate containing fresh MTT substrate in tissue media and placed in the incubator at 37° C. and 5% CO2 for 2 hours. […] Optical density was measured at 570 nm without using a reference filter. […]
Percent cell viability was calculated as follows: 100×[OD(sample)/OD(neg control)]. […] The test formulations were classified as irritant or non-irritant based on EU and GHS classification, according to which an irritant (R38/Category 2) is determined if the mean relative tissue viability of tissues exposed to test material is reduced below 50% of the negative control.

Substance: triton X-100
- Mean percent viability: < 20%
